# US8865894B2, “Oxazolidin-2-one compounds and uses thereof” (Novartis AG, priority 2012, dated 2014)
# Target: T1, human PI3Kbeta p110 catalytic subunit (Rat-1 pBABEpuro Myr-HA-hp110 beta) (Homo sapiens, UniProt P42338)
# T1 construct: Myr (myristoylation signal) (N); HA (N); expressed in transfected cells; host or cells: Rat-1
# Experiment: Cellular assay PI3Kbeta (p-Akt(S473) SureFire, Rat-1_PI3beta cells)
# Type: cell-based
# Conditions: p-Akt(S473), 1 h compound treatment; read-out: Rat1-PI3Kb/ IC50
# Description: AlphaScreen (Amplified Luminescent Proximity Homogeneous Assay, ALPHA, Perkin Elmer) is a non-radioactive bead-based proximity assay technology to study biomolecular interactions in a homogenous microtiter plate format. The brand name SureFire denotes AlphaScreen assays that are adapted to quantify the phosphorylation of endogenous cellular proteins in cell lysates, by using matched antibody pairs, which consist of an anti-phospho-kinase and an anti-kinase antibody. The assay allows characterization of kinase signaling in cells as well as measurement of kinase inhibitor effects. The AlphaScreen technology provides several advantages over standard assay techniques such as ELISA, as it avoids time-consuming washing procedures and reduces plate handling. Furthermore, it is miniaturizable at least to a 384-well format and provides sensitivity down to the femtomolar range, dependent on the affinity of the antibodies included in the individual AlphaScreen SureFire assay kit. High sensitivity is reached by an intrinsic amplification mechanism, which involves production of singlet oxygen molecules. SureFire assay kits are commercially available for specific targets and include pairs of validated antibodies (PerkinElmer). This report describes common procedures applied for AlphaScreen SureFire assays and respective semi-automated steps for routine kinase inhibitor profiling in cell-based assays.
# The Rat-1 cell lines stably overexpressing activated PI3K class I isoforms Rat-1 pBABEpuro Myr-HA-hp110 delta (Rat-1_PI3Kdelta) and Rat-1 pBABEpuro Myr-HA-hp110alpha (Rat-1_PI3Kalpha) and Rat-1 pBABEpuro Myr-HA-hp110 beta (Rat-1_PI3beta) were prepared as described (Maira S M, Stauffer F, Brueggen J, Furet P, Schnell C, Fritsch C, Brachmann S, Chène P, de Pover A, Schoemaker K, Fabbro D, Gabriel D, Simonen M, Murphy L, Finan P, Sellers W, García-Echeverría C (2008), Mol Cancer Ther. 7:1851-63 and Maira S M, Pecchi S, Brueggen J, Huh K, Schnell C, Fritsch C, Nagel T, Wiesmann M, Brachmann S, Dorsch M, Chène P, Schoemaker K, De Pover A, Menezes D, Fabbro D, Sellers W, García-Echeverría C, Voliva C F (2011), Mol. Cancer Ther., accepted). All cell lines were cultivated in complete growth medium (DMEM high glucose, 10% (v/v) fetal bovine serum, 1% (v/v) MEM NEAA, 10 mM HEPES, 2 mM L-glutamine, puromycin (10 μg/mL for Rat-1_PI3Kdelta and Rat-1_PI3Kalpha, 4 ug/mL for Rat-1_PI3beta), 1% (v/v) Pen/Strep) to 90% confluency at 37° C./5% CO2/90% humidity in a humidified CO2 incubator and were split twice a week.
# The following materials were used for p-AKT(S473) detection in Rat-1 cell lysates: Dulbecco's modified Eagle's medium (DMEM) high glucose (Gibco Invitrogen, Basel, Switzerland, Cat. No. 41965), Heat Inactivated Fetal Bovine Serum, Qualified (HI FBS; Gibco Invitrogen, Basel, Switzerland, Lot. No. 16140), MEM non essential amino acids (NEAA; Gibco Invitrogen, Basel, Switzerland, Cat. No. 11140), HEPES (Gibco Invitrogen, Basel, Switzerland, Cat. No. 15630), Penicillin/Streptomycin (Pen/Strep, 100×; Gibco Invitrogen, Basel, Switzerland, Cat. No. 15140-122), L-Glutamine (Gibco Invitrogen, Basel, Switzerland, Cat. No. 25030), Puromycin (Sigma Aldrich, Buchs, Switzerland, Cat. No. P9620), DMSO (MERCK, Dietikon, Switzerland, Cat. No. 8.02912.2500), H2O, MilliQ-H2O unless otherwise stated (MILLIPORE QGARDOOR1, Millipore, Zug, Switzerland), Bovine serum albumine (BSA; Sigma Aldrich, Buchs, Switzerland Cat. No. A8412), SureFire p-Akt 1/2 (Ser473) Assay Kit (PerkinElmer, Schwerzenbach, Switzerland, Cat. No. TGRAS50K).
# The p-Akt(S473) SureFire assay measures the phosphorylation of endogenous cellular Akt 1/2 at Ser473 in cell lysates. Using Rat-1 cells stably expressing myr-HA-tagged versions of the human PI3Kdelta, PI3Kalpha, or PI3Kbeta p110 catalytic subunit isoforms, the assay was developed as a two-plate protocol in a 384-well format.
# T1 sequence (P42338 whole entry): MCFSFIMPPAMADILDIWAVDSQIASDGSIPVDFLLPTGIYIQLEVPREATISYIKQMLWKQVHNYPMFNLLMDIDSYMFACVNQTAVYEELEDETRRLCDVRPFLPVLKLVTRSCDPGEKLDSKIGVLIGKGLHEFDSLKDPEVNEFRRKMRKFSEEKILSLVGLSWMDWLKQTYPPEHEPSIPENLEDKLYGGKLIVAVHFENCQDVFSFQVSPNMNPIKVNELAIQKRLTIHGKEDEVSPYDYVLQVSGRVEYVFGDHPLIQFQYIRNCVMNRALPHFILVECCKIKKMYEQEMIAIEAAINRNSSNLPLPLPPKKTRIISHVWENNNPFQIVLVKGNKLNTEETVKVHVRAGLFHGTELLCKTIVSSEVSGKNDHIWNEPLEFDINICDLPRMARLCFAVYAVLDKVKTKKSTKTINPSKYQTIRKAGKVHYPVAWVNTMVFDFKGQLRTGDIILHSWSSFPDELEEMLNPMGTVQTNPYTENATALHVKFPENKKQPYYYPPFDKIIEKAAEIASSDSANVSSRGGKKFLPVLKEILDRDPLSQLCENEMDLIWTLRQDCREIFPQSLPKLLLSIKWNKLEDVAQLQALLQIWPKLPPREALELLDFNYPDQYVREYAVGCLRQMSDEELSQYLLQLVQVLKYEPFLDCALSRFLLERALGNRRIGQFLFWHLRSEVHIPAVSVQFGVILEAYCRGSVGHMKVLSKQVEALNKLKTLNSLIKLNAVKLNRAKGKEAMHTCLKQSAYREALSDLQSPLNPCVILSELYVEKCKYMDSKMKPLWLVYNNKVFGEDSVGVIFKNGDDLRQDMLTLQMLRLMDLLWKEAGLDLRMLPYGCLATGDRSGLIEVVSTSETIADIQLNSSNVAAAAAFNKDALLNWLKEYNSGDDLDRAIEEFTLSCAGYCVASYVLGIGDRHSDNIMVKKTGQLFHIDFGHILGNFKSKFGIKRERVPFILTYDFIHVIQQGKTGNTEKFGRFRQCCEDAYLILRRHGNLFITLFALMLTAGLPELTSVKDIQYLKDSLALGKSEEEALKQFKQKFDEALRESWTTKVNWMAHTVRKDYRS
# T1 sequence (Q63787 whole entry partner): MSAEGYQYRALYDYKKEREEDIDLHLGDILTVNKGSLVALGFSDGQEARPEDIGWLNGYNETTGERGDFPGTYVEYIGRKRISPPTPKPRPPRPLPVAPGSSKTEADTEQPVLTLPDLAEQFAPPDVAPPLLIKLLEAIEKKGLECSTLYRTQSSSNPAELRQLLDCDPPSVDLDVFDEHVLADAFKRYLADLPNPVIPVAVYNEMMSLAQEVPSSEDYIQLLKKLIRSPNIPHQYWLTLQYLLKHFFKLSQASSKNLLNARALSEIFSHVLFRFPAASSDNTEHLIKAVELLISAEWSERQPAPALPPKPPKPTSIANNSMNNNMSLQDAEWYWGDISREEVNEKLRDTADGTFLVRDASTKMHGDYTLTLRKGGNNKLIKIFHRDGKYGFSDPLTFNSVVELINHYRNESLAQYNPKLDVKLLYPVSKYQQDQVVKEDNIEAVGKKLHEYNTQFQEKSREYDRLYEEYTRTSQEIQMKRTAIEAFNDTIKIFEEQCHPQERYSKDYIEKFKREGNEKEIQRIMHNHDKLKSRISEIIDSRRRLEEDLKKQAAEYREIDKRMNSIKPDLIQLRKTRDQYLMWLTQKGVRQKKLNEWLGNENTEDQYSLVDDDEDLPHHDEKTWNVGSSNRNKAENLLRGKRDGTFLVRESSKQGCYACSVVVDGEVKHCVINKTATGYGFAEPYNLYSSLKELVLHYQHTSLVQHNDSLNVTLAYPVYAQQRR
row,SMILES,IC50
1,"Nc1ncc(-c2cc(N3C[C@H](CO)OC3=O)nc(N3CCOCC3)n2)c(C(F)(F)F)n1 [Example 20, (R)-3-(2′-Amino-2-morpholin-4-yl-4′-trifluoromethyl-[4,5′]bipyrimidinyl-6-yl)-5-hydroxymethyl-oxazolidin-2-one]",0.124 µM
2,"Nc1ncc(-c2cc(N3C(=O)O[C@H]4COC[C@H]43)nc(N3CCOCC3)n2)c(C(F)(F)F)n1 [Example 21, (3aR,6aR)-3-(2′-amino-2-morpholino-4′-(trifluoromethyl)-[4,5′-bipyrimidin]-6-yl)-tetrahydrofuro[3,4-d]oxazol-2(3H)-one]",0.046 µM
3,"C[C@H]1[C@@H](CCO)OC(=O)N1c1cc(-c2cnc(N)nc2C(F)(F)F)nc(N2CCOCC2)n1 [Example 23, (4S,5R)-3-(2′-Amino-2-morpholino-4′-(trifluoromethyl)-[4,5′-bipyrimidin]-6-yl)-5-(2-hydroxyethyl)-4-methyloxazolidin-2-one]",0.027 µM
